Results published in ChEMBL document CHEMBL6083252, “Synthesis and evaluation of novel tetrahydroisoquinoline-benzo[h]chromen-4-one conjugates as dual ABCB1/CYP1B1 inhibitors for overcoming MDR in cancer” (Bioorg Med Chem, 2024).
The source made the active and inactive calls. No cut-off for these calls is given here.

Tests used:
SW620/AD300 [1] = experiment: Reversal of multidrug resistance in human SW620/AD300 cells assessed as decrease in doxorubicin IC50 at 5 uM in presence of doxorubicin (reference value: 11.10 +/- 1.61 uM); type: functional, cell-based
SW620/AD300 [2] = experiment: Reversal of multidrug resistance in human SW620/AD300 cells assessed as reversal fold by measuring ratio of doxorubicin IC50 to doxorubicin IC50 in presence of test compound at 5 uM; type: functional
SW-620 = experiment: Cytotoxicity against human SW620 cells assessed as inhibition of cell growth at 5 uM incubated for 48 hrs by CCK8 assay; type: functional; parameters: scale not given: the % may be the effect or the level left
SW620/AD300 [3] = experiment: Cytotoxicity against human SW620/AD300 cells assessed as inhibition of cell growth at 5 uM incubated for 48 hrs by CCK8 assay; type: functional; parameters: scale not given: the % may be the effect or the level left
[4] = biological target: ATP-dependent translocase ABCB1 (Homo sapiens, UniProt P08183); experiment: Inhibition of P-gp in human SW620/AD300 cells assessed as increase in intracellular Rh123 accumulation at 5 uM incubated for 4 hrs by flow cytometry analysis; type: cell-based; conditions: sw620/ad300, 4 h
Cytochrome P450 1B1 = biological target: T1, Cytochrome P450 1B1 (Homo sapiens, UniProt Q16678); experiment: Inhibition of recombinant human CYP1B1 at 0.5 uM using 7-Ethoxyresorufin as substrate incubated for 35 mins in presence of NADPH by microplate reader assay; type: ADME; conditions: recombinant enzyme
T1 sequence (Q16678 whole entry): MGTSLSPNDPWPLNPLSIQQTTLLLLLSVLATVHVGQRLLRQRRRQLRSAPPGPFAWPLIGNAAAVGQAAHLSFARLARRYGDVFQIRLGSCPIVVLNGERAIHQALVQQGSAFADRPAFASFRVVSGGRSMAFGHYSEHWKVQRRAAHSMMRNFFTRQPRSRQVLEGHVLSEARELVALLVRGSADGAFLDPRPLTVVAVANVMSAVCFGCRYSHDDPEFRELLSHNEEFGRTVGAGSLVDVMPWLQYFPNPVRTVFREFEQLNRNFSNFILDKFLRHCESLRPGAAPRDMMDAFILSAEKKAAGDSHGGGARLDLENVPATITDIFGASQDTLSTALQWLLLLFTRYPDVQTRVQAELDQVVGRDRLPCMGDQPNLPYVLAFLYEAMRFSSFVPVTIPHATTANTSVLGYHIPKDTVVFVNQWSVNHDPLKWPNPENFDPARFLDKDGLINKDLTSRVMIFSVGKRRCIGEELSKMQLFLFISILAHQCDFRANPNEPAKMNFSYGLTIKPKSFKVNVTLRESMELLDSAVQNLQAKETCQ

[5] = Reversal of docetaxel resistance in human DU-145 cells transfected with CYP1B1 assessed as decrease in docetaxel IC50 at 5 uM (reference value: 23.5 +/- 3.04 nM); type: functional, cell-based
DU-145 = experiment: Cytotoxicity against human DU-145 cells assessed as inhibition of cell growth at 5 uM incubated for 48 hrs by CCK8 assay; type: functional, cell-based
[6] = Reversal of drug resistance in human DOX-SW620/AD300-1B1 cells assessed as decrease in doxorubicin IC50 at 5 uM after 48 hrs in presence of doxorubicin by CCK8 assay (reference value: 64.5 +/- 30 uM); type: functional, cell-based; conditions: DOX-SW620/AD300-1B1, 48 h
SW620/AD300 [7] = experiment: Downregulation of P-gp expression in human SW620/AD300 cells at 10 uM incubated for 24 hrs by immunofluorescence assay; type: functional, cell-based
SW620/AD300 [8] = experiment: Downregulation of P-gp expression in human SW620/AD300 cells upto 30 uM incubated for 24 hrs by Western blotting assay; type: functional, cell-based
[9] = system: MKN45-DDP-R (Cisplatin-resistant MKN45 cells); experiment: Reversal of cisplatin resistance in human MKN45-DDP-R cells expressing CYP1B1 at 5 uM in presence of cisplatin; type: functional, cell-based
SW620/AD300 [10] = experiment: Cytotoxicity against human SW620/AD300 cells assessed as inhibition of cell growth incubated for 48 hrs by CCK8 assay; type: functional, cell-based; conditions: SW620/AD300, 48 h
[11] = Cytotoxicity against human MKN45-DDP-R cells assessed as inhibition of cell growth incubated for 48 hrs by CCK8 assay; type: functional, cell-based; conditions: MKN45-DDP-R (Cisplatin-resistant MKN45 cells)
SW620/AD300 [12] = experiment: Effect on P-gp protein expression in human SW620/AD300 cells at 5 uM incubated for 24 hrs by immunofluorescence assay; type: functional, cell-based
SW620/AD300 [13] = experiment: Effect on P-gp protein expression in human SW620/AD300 cells at 5 to 30 uM by Western blotting assay; type: functional, cell-based; conditions: dose 5-30 µM
[14] = system: MKN45-DDP-R (Cisplatin-resistant MKN45 cells); experiment: Effect on lipid peroxidation level in human MKN45-DDP-R cells at 10 uM incubated for 24 hrs by BODIPY 581/591 C11 probe based flow cytometry assay; type: functional, cell-based
[15] = system: MKN45-DDP-R (Cisplatin-resistant MKN45 cells); experiment: Upregulation of PUMA expression level in human MKN45-DDP-R cells at 6 to 12 uM incubated for 48 hrs by Western blotting assay; type: functional, cell-based; conditions: dose 6-12 µM
[16] = Induction of apoptosis in human MKN45-DDP-R cells assessed as viable cells at 3 uM incubated for 48 hrs by Annexin V-FITC/PI staining based flow cytometry analysis (reference value: 94.7%); type: functional; conditions: MKN45-DDP-R (Cisplatin-resistant MKN45 cells), read-out: Activity
[17] = Induction of apoptosis in human MKN45-DDP-R cells assessed as early apoptotic cells at 3 uM incubated for 48 hrs by Annexin V-FITC/PI staining based flow cytometry analysis (reference value: 3.70%); type: functional, MKN45-DDP-R (Cisplatin-resistant MKN45 cells)
[18] = Induction of apoptosis in human MKN45-DDP-R cells assessed as late apoptotic cells at 3 uM incubated for 48 hrs by Annexin V-FITC/PI staining based flow cytometry analysis (reference value: 0.89%); type: functional, MKN45-DDP-R (Cisplatin-resistant MKN45 cells)
[19] = Induction of apoptosis in human MKN45-DDP-R cells assessed as necrotic cells at 3 uM incubated for 48 hrs by Annexin V-FITC/PI staining based flow cytometry analysis (reference value: 0.76%); type: functional, MKN45-DDP-R (Cisplatin-resistant MKN45 cells)
[20] = Induction of apoptosis in human MKN45-DDP-R cells assessed as viable cells at 6 uM incubated for 48 hrs by Annexin V-FITC/PI staining based flow cytometry analysis (reference value: 94.7%); type: functional; conditions: MKN45-DDP-R (Cisplatin-resistant MKN45 cells), read-out: Activity
[21] = Induction of apoptosis in human MKN45-DDP-R cells assessed as early apoptotic cells at 6 uM incubated for 48 hrs by Annexin V-FITC/PI staining based flow cytometry analysis (reference value: 3.70%); type: functional, MKN45-DDP-R (Cisplatin-resistant MKN45 cells)
[22] = Induction of apoptosis in human MKN45-DDP-R cells assessed as late apoptotic cells at 6 uM incubated for 48 hrs by Annexin V-FITC/PI staining based flow cytometry analysis (reference value: 0.89%); type: functional, MKN45-DDP-R (Cisplatin-resistant MKN45 cells)
[23] = Induction of apoptosis in human MKN45-DDP-R cells assessed as necrotic cells at 6 uM incubated for 48 hrs by Annexin V-FITC/PI staining based flow cytometry analysis (reference value: 0.76%); type: functional, MKN45-DDP-R (Cisplatin-resistant MKN45 cells)
[24] = system: MKN45-DDP-R (Cisplatin-resistant MKN45 cells); experiment: Inhibition of colony formation in human MKN45-DDP-R cells assessed as decrease in colony number incubated for 48 hrs followed by media replacement and cultured for 12 days by crystal violet staining based assay; type: functional, cell-based; conditions: dose 1-3 µM
[25] = system: MKN45-DDP-R (Cisplatin-resistant MKN45 cells); experiment: Inhibition of colony formation in human MKN45-DDP-R cells assessed as decrease in colony size incubated for 48 hrs followed by media replacement and cultured for 12 days by crystal violet staining based assay; type: functional, cell-based; conditions: dose 1-3 µM
[26] = system: MKN45-DDP-R (Cisplatin-resistant MKN45 cells); experiment: Inhibition of cell migration in human MKN45-DDP-R cells at over 1 uM incubated for 24 hrs by scratch wound healing based inverted microscopic analysis; type: functional
[27] = Cytotoxicity against human DOX-SW620/AD300-1B1 cells assessed as inhibition of cell growth incubated for 48 hrs by CCK8 assay; type: functional, cell-based; conditions: DOX-SW620/AD300-1B1, 48 h

Chain of ATP-dependent translocase ABCB1 (P08183 whole entry): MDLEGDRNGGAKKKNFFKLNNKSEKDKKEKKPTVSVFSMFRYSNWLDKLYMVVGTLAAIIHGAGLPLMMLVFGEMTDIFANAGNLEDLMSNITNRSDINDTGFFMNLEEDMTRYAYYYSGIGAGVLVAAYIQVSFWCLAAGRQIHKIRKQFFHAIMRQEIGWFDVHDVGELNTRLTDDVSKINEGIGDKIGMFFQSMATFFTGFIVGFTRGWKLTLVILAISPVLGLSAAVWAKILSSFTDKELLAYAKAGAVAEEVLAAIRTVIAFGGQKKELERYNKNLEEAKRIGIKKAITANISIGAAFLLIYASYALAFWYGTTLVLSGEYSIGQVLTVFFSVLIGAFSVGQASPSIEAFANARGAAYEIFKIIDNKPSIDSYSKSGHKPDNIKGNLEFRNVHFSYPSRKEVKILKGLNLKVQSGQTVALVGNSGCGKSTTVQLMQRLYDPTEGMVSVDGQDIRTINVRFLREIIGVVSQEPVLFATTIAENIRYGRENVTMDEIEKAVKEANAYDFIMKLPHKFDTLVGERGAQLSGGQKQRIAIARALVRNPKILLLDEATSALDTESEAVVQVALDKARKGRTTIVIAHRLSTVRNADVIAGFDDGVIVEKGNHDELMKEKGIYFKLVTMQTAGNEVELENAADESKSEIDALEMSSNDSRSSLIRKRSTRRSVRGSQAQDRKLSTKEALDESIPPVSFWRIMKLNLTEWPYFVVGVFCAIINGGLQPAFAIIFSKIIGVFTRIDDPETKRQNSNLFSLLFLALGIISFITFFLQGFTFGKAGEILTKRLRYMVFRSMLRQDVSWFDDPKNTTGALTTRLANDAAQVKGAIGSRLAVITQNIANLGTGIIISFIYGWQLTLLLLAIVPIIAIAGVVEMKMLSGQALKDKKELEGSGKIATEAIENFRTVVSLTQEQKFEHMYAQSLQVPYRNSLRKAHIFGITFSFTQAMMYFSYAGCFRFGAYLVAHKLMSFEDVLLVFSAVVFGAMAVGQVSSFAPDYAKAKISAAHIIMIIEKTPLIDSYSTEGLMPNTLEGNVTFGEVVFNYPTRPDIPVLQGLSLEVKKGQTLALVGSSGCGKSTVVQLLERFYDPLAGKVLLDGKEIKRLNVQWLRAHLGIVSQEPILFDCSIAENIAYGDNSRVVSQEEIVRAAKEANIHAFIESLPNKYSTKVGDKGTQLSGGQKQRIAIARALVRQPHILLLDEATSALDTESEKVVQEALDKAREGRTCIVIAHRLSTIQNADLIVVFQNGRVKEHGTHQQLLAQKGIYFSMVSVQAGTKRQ

Structure (SMILES) | IC50 (SW620/AD300 [1]) [nM] | Ratio IC50 (SW620/AD300 [2]) | Activity (SW-620) [%] | Activity (SW620/AD300 [3]) [%] | IC50 [5] [nM] | Activity (DU-145) | further results
COc1ccc(C(=O)Nc2ccccc2C(=O)Nc2ccc(CCN3CCc4cc(OC)c(OC)cc4C3)cc2)cc1OC | 280 | 39.6 | 8.91 | 6.53 | 8.7 | Active; Lower Cytotoxicity Than Anf And Wk-X-38 | inhibition (INH) [4]: Active; inhibition (INH) (Cytochrome P450 1B1): Active; IC50 [6]: 40000 nM
COc1cc2c(cc1OC)CN(C(=O)c1cc(=O)c3ccc4ccccc4c3o1)CC2 | 6500 | 1.7 | 8.82 | 15.57 |  |  | 
COc1cc2c(cc1OC)CN(CCc1ccc(NC(=O)c3cc(=O)c4cc(OC)c5ccccc5c4o3)cc1)CC2 | 250 | 44.4 | 32.77 | 17.28 | 5.69 | Active; Lower Cytotoxicity Than Anf And Wk-X-36 | Activity (SW620/AD300 [7]): inactive; Activity (SW620/AD300 [8]): inactive; Activity [9]: Active; IC50 [6]: 4700 nM
COc1cc2c(cc1OC)CN(CCNC(=O)c1cc(=O)c3ccc4ccccc4c3o1)CC2 | 5250 | 2.1 | 51.29 | 55.04 |  |  | IC50 (SW620/AD300 [10]): 9100 nM; IC50 [11]: 6580 nM; Activity (SW620/AD300 [12]): inactive; Activity (SW620/AD300 [13]): inactive; Activity [14]: inactive; Activity [15]: Active; viability at 3 µM [16]: 81.1%; Activity [17]: 15%; Activity [18]: 3.37%; Activity [19]: 0.58%; viability at 6 µM [20]: 58%; Activity [21]: 34.9%; Activity [22]: 6.41%; Activity [23]: 0.73%; inhibition [24]: Dose-dependent-effect; inhibition [25]: Dose-dependent-effect; inhibition [26]: Active
COc1cc2c(cc1OC)CN(C(=O)C1CCN(C(=O)c3cc(=O)c4ccc5ccccc5c4o3)CC1)CC2 | 840 | 13.2 | 26.93 | 14.46 |  |  | 
COc1cc2c(cc1OC)CN(CCN1CCN(C(=O)c3cc(=O)c4ccc5ccccc5c4o3)CC1)CC2 | 660 | 16.8 | 11.06 | 15.35 |  |  | 
COc1cc2c(cc1OC)CN(CCc1ccc(NC(=O)c3ccccc3NC(=O)c3cc(=O)c4ccc5ccccc5c4o3)cc1)CC2 | 320 | 34.7 | 13.34 | 7.13 | 9.6 | Active; Lower Cytotoxicity Than Anf And Wk-X-34 | Activity (SW620/AD300 [7]): inactive; Activity (SW620/AD300 [8]): inactive
COc1cc2c(cc1OC)CN(C(=O)c1cc(=O)c3cc(OC)c4ccccc4c3o1)CC2 | 7480 | 1.4 | 4.62 | 3.49 | 11.4 | Active; Lower Cytotoxicity Than Anf And Wk-X-35 | 
O=c1cc(-c2ccccc2)oc2c1ccc1ccccc12 [ALPHA-NAPHTHOFLAVONE] |  |  |  |  | 8.2 | Active; Lower Cytotoxicity Than Anf And Wk-X-39 | inhibition (INH) (Cytochrome P450 1B1): Active; IC50 [6]: 2400 nM
COc1cc2c(cc1OC)CN(CCNC(=O)c1cc(=O)c3cc(OC)c4ccccc4c3o1)CC2 | 470 | 23.6 | 28.94 | 34.64 |  |  | 
COc1cc2c(cc1OC)CN(C(=O)Cn1cc(-c3ccc(-c4cc(=O)c5ccc6ccccc6c5o4)cc3)nn1)CC2 | 2290 | 4.8 | 22.19 | 26.85 | 3.41 | Active; Lower Cytotoxicity Than Anf And Wk-X-37 | Activity [9]: Active
COc1cc2c(cc1OC)CN(C(=O)C1CCN(C(=O)c3cc(=O)c4cc(OC)c5ccccc5c4o3)CC1)CC2 | 2200 | 5 | 13.03 | 4.05 |  |  | 
COc1cc2c(cc1OC)CN(CCc1ccc(NC(=O)c3cc(=O)c4ccc5ccccc5c4o3)cc1)CC2 | 400 | 27.8 | 13.57 | 20.08 |  |  | 
COc1cccc2c1C(=O)c1c(O)c3c(c(O)c1C2=O)C[C@@](O)(C(=O)CO)C[C@@H]3O[C@H]1C[C@H](N)[C@H](O)[C@H](C)O1 [DOXORUBICIN] |  |  | 0.29 |  |  |  | IC50 (SW620/AD300 [10]): 11100 nM; IC50 [27]: 64500 nM
